Experimental data from PubChem BioAssay AID1963428 (Molecular Pharmacology Branch, DTP, NCI, 2024).
Values joined by “and” are separate entries in the source; they are usually repeats but may differ in a detail not shown here. Equal entries are not always repeated.

System: 171881-019-R-J1-PDC complex spheroid growth, % test/control
Assay: Anticancer human tumor 171881-019-R-J1-PDC patient-derived invasive breast carcinoma cell line growth inhibition [Asc]
Conditions: for viability, T/C: stronger effect = lower value
Procedure, shortened: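 Stromal components (HUVEC and hMSC) are co-assembled with the cancer cells into multicellular spheroids. Drugs are then added singly or paired, at concentrations falling by half-log increments from a clinically achievable maximum, capped at 10 microM without known Cmax.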
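Throughout, for viability, T/C: spheroids exposed to compounds for 7 days.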

In the case of `CCN1CCN(Cc2ccc(Nc3ncc(F)c(-c4cc(F)c5nc(C)n(C(C)C)c5c4)n3)nc2)CC1` + Cc1c(S(C)(=O)=O)c(-c2cc(F)cc(N3CCN(c4ccc(NS(=O)(=O)c5ccc(NC(CCN6CCC(C(=O)OCCCP(=O)(O)O)CC6)CSc6ccccc6)c(S(=O)(=O)C(F)(F)F)c5)cc4)CC3)c2)c(-c2ccc(Cl)cc2)n1C(C)C, the IC50 (curve of first compound, second compound 0.1 µM) is reported as > 1000 nM, the IC50 (curve of first compound, second compound 0.316 µM) is reported as > 1000 nM and the IC50 (curve of first compound, second compound 1 µM) is reported as > 1000 nM. For the same compound, the IC50 (curve of first compound, second compound 3.16 µM) was > 1000 nM, the IC50 (curve of first compound, second compound 10 µM) was > 1000 nM and the viability, T/C (second compound 0.1 µM, first compound 0.00316 µM) was 105%. The viability, T/C (second compound 0.1 µM, first compound 0.01 µM) was 118%, the viability, T/C (second compound 0.1 µM, first compound 0.0316 µM) was 119% and the viability, T/C (second compound 0.1 µM, first compound 0.1 µM) was 111%. The viability, T/C (second compound 0.1 µM, first compound 0.316 µM) was 118%, the viability, T/C (second compound 0.1 µM, first compound 1 µM) was 146% and the viability, T/C (second compound 0.316 µM, first compound 0.00316 µM) was 142%. It also gave a viability, T/C (second compound 0.316 µM, first compound 0.01 µM) of 145%, a viability, T/C (second compound 0.316 µM, first compound 0.0316 µM) of 149% and a viability, T/C (second compound 0.316 µM, first compound 0.1 µM) of 139%. It also gave a viability, T/C (second compound 0.316 µM, first compound 0.316 µM) of 178%, a viability, T/C (second compound 0.316 µM, first compound 1 µM) of 188% and a viability, T/C (second compound 1 µM, first compound 0.00316 µM) of 125%. It also gave a viability, T/C (second compound 1 µM, first compound 0.01 µM) of 149%, a viability, T/C (second compound 1 µM, first compound 0.0316 µM) of 157% and a viability, T/C (second compound 1 µM, first compound 0.1 µM) of 172%. It also gave a viability, T/C (second compound 1 µM, first compound 0.316 µM) of 188%, a viability, T/C (second compound 1 µM, first compound 1 µM) of 200% and a viability, T/C (second compound 3.16 µM, first compound 0.00316 µM) of 191%. For the same compound, the viability, T/C (second compound 3.16 µM, first compound 0.01 µM) was 190%, the viability, T/C (second compound 3.16 µM, first compound 0.0316 µM) was 189% and the viability, T/C (second compound 3.16 µM, first compound 0.1 µM) was 184%. It also gave a viability, T/C (second compound 3.16 µM, first compound 0.316 µM) of 188%, a viability, T/C (second compound 3.16 µM, first compound 1 µM) of 185% and a viability, T/C (second compound 10 µM, first compound 0.00316 µM) of 199%. The viability, T/C (second compound 10 µM, first compound 0.01 µM) was 215%, the viability, T/C (second compound 10 µM, first compound 0.0316 µM) was 213% and the viability, T/C (second compound 10 µM, first compound 0.1 µM) was 192%. The viability, T/C (second compound 10 µM, first compound 0.316 µM) was 187% and the viability, T/C (second compound 10 µM, first compound 1 µM) was 166%.
For `NC1CCC(NC2CC2c2ccccc2)CC1` (configuration not stated), the viability, T/C (compound 0.000316 µM) was 97.1% and 106% and 92%, the viability, T/C (compound 0.001 µM) was 87.7% and 98.6% and 88.7% and the viability, T/C (compound 0.00316 µM) was 94.6% and 94.2% and 80.9%. The viability, T/C (compound 0.01 µM) was 92.8% and 95.6% and 87.6%, the viability, T/C (compound 0.0316 µM) was 76.2% and 94.8% and 77.5% and the viability, T/C (compound 0.1 µM) was 75.7% and 109% and 79.7%. The IC50 (curve of compound) was > 100 nM.
Work on `NC(=O)C(=Cn1cnc(-c2cc(C(F)(F)F)cc(C(F)(F)F)c2)n1)c1cncnc1` + CCN1C(C(=O)NC23CCC(C(=O)O)(CC2)CC3)C(c2cccc(Cl)c2F)C2(C(=O)Nc3cc(Cl)ccc32)C12CCCCC2 yielded an IC50 (curve of first compound, second compound 0.03 µM) of 34.5 nM, an IC50 (curve of first compound, second compound 0.0949 µM) of 29.2 nM and an IC50 (curve of first compound, second compound 0.3 µM) of 37.4 nM. The IC50 (curve of first compound, second compound 0.949 µM) was 38.1 nM, the IC50 (curve of first compound, second compound 3 µM) was 29.3 nM and the viability, T/C (second compound 0.03 µM, first compound 0.000949 µM) was 116%. For the same compound, the viability, T/C (second compound 0.03 µM, first compound 0.003 µM) was 103%, the viability, T/C (second compound 0.03 µM, first compound 0.00949 µM) was 93.8% and the viability, T/C (second compound 0.03 µM, first compound 0.03 µM) was 57.9%. It also gave a viability, T/C (second compound 0.03 µM, first compound 0.0949 µM) of 9.64%, a viability, T/C (second compound 0.03 µM, first compound 0.3 µM) of 3.28% and a viability, T/C (second compound 0.0949 µM, first compound 0.000949 µM) of 139%. The viability, T/C (second compound 0.0949 µM, first compound 0.003 µM) was 101%, the viability, T/C (second compound 0.0949 µM, first compound 0.00949 µM) was 100% and the viability, T/C (second compound 0.0949 µM, first compound 0.03 µM) was 48.6%. It also gave a viability, T/C (second compound 0.0949 µM, first compound 0.0949 µM) of 10.1%, a viability, T/C (second compound 0.0949 µM, first compound 0.3 µM) of 3.82% and a viability, T/C (second compound 0.3 µM, first compound 0.000949 µM) of 121%. The viability, T/C (second compound 0.3 µM, first compound 0.003 µM) was 118%, the viability, T/C (second compound 0.3 µM, first compound 0.00949 µM) was 108% and the viability, T/C (second compound 0.3 µM, first compound 0.03 µM) was 60.3%. It also gave a viability, T/C (second compound 0.3 µM, first compound 0.0949 µM) of 8.36%, a viability, T/C (second compound 0.3 µM, first compound 0.3 µM) of 2.76% and a viability, T/C (second compound 0.949 µM, first compound 0.000949 µM) of 126%. For the same compound, the viability, T/C (second compound 0.949 µM, first compound 0.003 µM) was 115%, the viability, T/C (second compound 0.949 µM, first compound 0.00949 µM) was 114% and the viability, T/C (second compound 0.949 µM, first compound 0.03 µM) was 61%. For the same compound, the viability, T/C (second compound 0.949 µM, first compound 0.0949 µM) was 8.13%, the viability, T/C (second compound 0.949 µM, first compound 0.3 µM) was 0.97% and the viability, T/C (second compound 3 µM, first compound 0.000949 µM) was 111%. The viability, T/C (second compound 3 µM, first compound 0.003 µM) was 117%, the viability, T/C (second compound 3 µM, first compound 0.00949 µM) was 105% and the viability, T/C (second compound 3 µM, first compound 0.03 µM) was 48.8%. The viability, T/C (second compound 3 µM, first compound 0.0949 µM) was 6.01% and the viability, T/C (second compound 3 µM, first compound 0.3 µM) was 1.16%.
